Assay results as given in PubChem BioAssay (NCI).
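Dose response: 5 concentrations. Exposure: 48 h. Format: 96-well plates. Endpoint: linear interpolation; highest concentration if not reached. GI50 is the concentration that inhibits growth by half. Definition used: TGI = concentration required for complete inhibition of growth.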

Key:
Assay in all cases: inhibition of tumour cell growth, NCI panel, 48 h
HT29 colon = test system: HT29 colon
MOLT-4 leukemia = test system: MOLT-4 leukemia
RPMI-8226 leukemia = test system: RPMI-8226 leukemia
NCI-H226 lung = test system: NCI-H226 lung
UACC-62 melanoma = test system: UACC-62 melanoma
CCRF-CEM leukemia = test system: CCRF-CEM leukemia
OVCAR-3 ovarian = test system: OVCAR-3 ovarian
HOP-62 NSCLC = test system: HOP-62 NSCLC
M14 melanoma = test system: M14 melanoma
SNB-19 CNS = test system: SNB-19 CNS

## C=CCCCC(O)c1ccc(C(O)c2cnc3ccccc3c2)o1 (stereo not given)
HT29 colon
  GI50: 46.9 µM
  TGI: > 100 µM
MOLT-4 leukemia
  GI50: 32.1 µM
  TGI: 82 µM
RPMI-8226 leukemia
  GI50: 17.9 µM
  TGI: 72.2 µM
NCI-H226 lung
  GI50: 30.8 µM
  TGI: 71.5 µM
UACC-62 melanoma
  GI50: 19.8 µM
  TGI: 39.8 µM
CCRF-CEM leukemia
  GI50: 29.4 µM
  TGI: 86.7 µM
OVCAR-3 ovarian
  GI50: 88.2 µM
  TGI: > 100 µM
HOP-62 NSCLC
  GI50: 21.2 µM
  TGI: 64.9 µM
M14 melanoma
  GI50: 19.6 µM
  TGI: 41.3 µM
SNB-19 CNS
  GI50: 82.5 µM
  TGI: > 100 µM

## C=CCn1c(=O)c(C(=O)NC(=O)OCC)cn(C2CCCCC2)c1=O
HT29 colon
  TGI: > 100 µM
MOLT-4 leukemia
  TGI: > 100 µM
RPMI-8226 leukemia
  TGI: > 100 µM
NCI-H226 lung
  TGI: > 100 µM
UACC-62 melanoma
  TGI: > 100 µM
CCRF-CEM leukemia
  TGI: > 100 µM
OVCAR-3 ovarian
  TGI: > 100 µM
HOP-62 NSCLC
  TGI: > 100 µM
M14 melanoma
  TGI: > 100 µM
SNB-19 CNS
  TGI: > 100 µM

## CC(=O)Nc1ccc(Cc2ccc3[nH]c(=O)cc(C)c3c2)cc1
HT29 colon
  TGI: > 100 µM
MOLT-4 leukemia
  TGI: > 100 µM
RPMI-8226 leukemia
  TGI: > 100 µM
NCI-H226 lung
  TGI: > 100 µM
UACC-62 melanoma
  TGI: > 100 µM
CCRF-CEM leukemia
  TGI: > 100 µM
OVCAR-3 ovarian
  TGI: > 100 µM
HOP-62 NSCLC
  TGI: > 100 µM
M14 melanoma
  TGI: > 100 µM
SNB-19 CNS
  TGI: > 100 µM

## Cc1cc(Cl)ccc1Nc1nc2c(s1)C(=O)c1ccccc1C2=O
HT29 colon
  TGI: 54.6 µM
MOLT-4 leukemia
  TGI: > 25.4 µM
RPMI-8226 leukemia
  TGI: 11.1 µM
NCI-H226 lung
  TGI: 13.7 µM
UACC-62 melanoma
  TGI: 7.41 µM
CCRF-CEM leukemia
  TGI: > 26.3 µM
OVCAR-3 ovarian
  TGI: 4.6 µM
HOP-62 NSCLC
  TGI: 9.72 µM
M14 melanoma
  TGI: 1.99 µM
SNB-19 CNS
  TGI: 16.3 µM

## C=C(C)C1CCC2(C(=O)O)CCC3(C)C(CCC4C5(C)CCC(O)C(C)(C)C5CCC43C)C12 (stereo not given)
HT29 colon
  TGI: 23.9 µM
MOLT-4 leukemia
  TGI: 26.5 µM
RPMI-8226 leukemia
  TGI: 63.5 µM
NCI-H226 lung
  TGI: 40.9 µM
UACC-62 melanoma
  TGI: 32.2 µM
CCRF-CEM leukemia
  TGI: 36.5 µM
OVCAR-3 ovarian
  TGI: 7.98 µM
HOP-62 NSCLC
  TGI: 27.6 µM
M14 melanoma
  TGI: 27.7 µM
SNB-19 CNS
  TGI: 39.7 µM

## Cc1nc2cc(Nc3nc(Nc4ccc(F)cc4)nc(N4CCCC4)n3)ccc2n1Cc1ccccc1
HT29 colon
  GI50: 1.93 µM
  TGI: 3.89 µM
MOLT-4 leukemia
  GI50: 2.52 µM
  TGI: 5.68 µM
RPMI-8226 leukemia
  GI50: 1.86 µM
  TGI: 4.55 µM
NCI-H226 lung
  GI50: 1.9 µM
  TGI: 4.29 µM
UACC-62 melanoma
  GI50: 1.62 µM
  TGI: 2.99 µM
CCRF-CEM leukemia
  GI50: 2.38 µM
  TGI: 5.6 µM
OVCAR-3 ovarian
  GI50: 1.77 µM
  TGI: 3.28 µM
HOP-62 NSCLC
  GI50: 1.74 µM
  TGI: 3.45 µM
M14 melanoma
  GI50: 2.06 µM
  TGI: 4.29 µM
SNB-19 CNS
  GI50: 3.4 µM
  TGI: 87.3 µM

## Clc1ccc(Nc2ncnc3c2sc2ncccc23)c(Cl)c1
HT29 colon
  GI50: 0.0462 µM
  TGI: > 100 µM
MOLT-4 leukemia
  GI50: 0.0382 µM
  TGI: > 100 µM
RPMI-8226 leukemia
  GI50: 0.0326 µM
  TGI: > 100 µM
NCI-H226 lung
  GI50: 0.42 µM
  TGI: > 100 µM
UACC-62 melanoma
  GI50: 0.0279 µM
  TGI: 8.37 µM
CCRF-CEM leukemia
  GI50: 0.0218 µM
  TGI: > 100 µM
OVCAR-3 ovarian
  GI50: 1 µM
  TGI: > 100 µM
HOP-62 NSCLC
  GI50: < 0.01 µM
  TGI: > 19.7 µM
M14 melanoma
  GI50: < 0.01 µM
  TGI: 0.038 µM
SNB-19 CNS
  GI50: < 0.0121 µM
  TGI: > 100 µM

## O=C(CC1(O)C(=O)Nc2ccc([N+](=O)[O-])cc21)c1ccc(Br)cc1 (stereo not given)
HT29 colon
  TGI: > 100 µM
MOLT-4 leukemia
  TGI: > 100 µM
RPMI-8226 leukemia
  TGI: > 100 µM
NCI-H226 lung
  TGI: > 100 µM
UACC-62 melanoma
  TGI: > 100 µM
CCRF-CEM leukemia
  TGI: > 100 µM
OVCAR-3 ovarian
  TGI: > 100 µM
HOP-62 NSCLC
  TGI: > 100 µM
M14 melanoma
  TGI: > 100 µM
SNB-19 CNS
  TGI: > 100 µM

## O=C(Nc1nc(-c2ccccc2Cl)cs1)c1cc(-c2ccc(Cl)cc2)nc2ccc(Cl)cc12
HT29 colon
  GI50: 3.52 µM
  TGI: > 100 µM
MOLT-4 leukemia
  GI50: 3.42 µM
  TGI: > 100 µM
RPMI-8226 leukemia
  GI50: 1.38 µM
  TGI: > 100 µM
NCI-H226 lung
  GI50: 2.32 µM
  TGI: 8.54 µM
UACC-62 melanoma
  GI50: 2.47 µM
  TGI: 26 µM
CCRF-CEM leukemia
  GI50: 3.54 µM
  TGI: > 100 µM
OVCAR-3 ovarian
  GI50: 2.64 µM
  TGI: 13.1 µM
HOP-62 NSCLC
  GI50: 3.73 µM
  TGI: 45 µM
M14 melanoma
  GI50: 0.918 µM
  TGI: 4.76 µM
SNB-19 CNS
  GI50: 3.79 µM
  TGI: 67.2 µM

## Oc1[nH]c2ccccc2c1/C=c1/ccc2c(c1)N=C(c1cc(F)cc(F)c1)N=2
HT29 colon
  GI50: 3.6 µM
  TGI: 16.2 µM
MOLT-4 leukemia
  GI50: 3.53 µM
  TGI: 14.6 µM
RPMI-8226 leukemia
  GI50: 3.22 µM
  TGI: 17.5 µM
NCI-H226 lung
  GI50: 11.4 µM
  TGI: 34.5 µM
UACC-62 melanoma
  GI50: 4.18 µM
  TGI: 20.3 µM
CCRF-CEM leukemia
  GI50: 2.44 µM
  TGI: 6.91 µM
OVCAR-3 ovarian
  GI50: 5 µM
  TGI: 17.9 µM
HOP-62 NSCLC
  GI50: 10.4 µM
  TGI: 25.2 µM
M14 melanoma
  GI50: 2.7 µM
  TGI: 13.6 µM
SNB-19 CNS
  GI50: 9.62 µM
  TGI: 28 µM

## COc1ccc2c(c1)CC1N(C)CCC13CCCCC23 (stereo not given)
HT29 colon
  TGI: > 100 µM
MOLT-4 leukemia
  TGI: > 100 µM
RPMI-8226 leukemia
  TGI: > 100 µM
NCI-H226 lung
  TGI: > 100 µM
UACC-62 melanoma
  TGI: > 100 µM
CCRF-CEM leukemia
  TGI: > 100 µM
OVCAR-3 ovarian
  TGI: > 100 µM
HOP-62 NSCLC
  TGI: > 100 µM
M14 melanoma
  TGI: > 100 µM
SNB-19 CNS
  TGI: > 100 µM

## COc1ccc(Nc2ncccc2C(=O)NCc2cn(Cc3cccc(Oc4ccccc4)c3)nn2)c(OC)c1
HT29 colon
  GI50: 1.47 µM
  TGI: 13.5 µM
MOLT-4 leukemia
  GI50: 4.02 µM
  TGI: > 100 µM
RPMI-8226 leukemia
  GI50: 5.33 µM
  TGI: > 100 µM
NCI-H226 lung
  GI50: 2.72 µM
  TGI: > 26.7 µM
UACC-62 melanoma
  GI50: 1.19 µM
  TGI: > 29.6 µM
CCRF-CEM leukemia
  GI50: 2.08 µM
  TGI: > 100 µM
OVCAR-3 ovarian
  GI50: 1.11 µM
  TGI: 4.78 µM
HOP-62 NSCLC
  GI50: 5.58 µM
  TGI: > 100 µM
M14 melanoma
  GI50: 1.37 µM
  TGI: > 100 µM
SNB-19 CNS
  GI50: 3.64 µM
  TGI: > 100 µM
